Source: US20240124504A1, “AROMATIC HETEROCYCLIC COMPOUND, AND PHARMACEUTICAL COMPOSITION AND APPLICATION THEREOF” (GT APEIRON THERAPEUTICS LIMITED, priority 2020, published 2024)

Key:
[1] = target: CDK2/cyclinE1 complex (Homo sapiens, UniProt P24941); assay: In-vitro enzymatic inhibitory activity testing, CDK2 inhibition assay (Caliper EZ Reader II); assay type: biochemical; conditions: CDK2/cyclinE1 0.5 nM, 180 min at 27° C.
Method in brief: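 CDK2/cyclinE1 (0.5 nM) phosphorylated 5-FAM-CDK7tide (2 μM) in MES buffer pH 6.5 with MgCl2, Tween 20 and BSA. Substrate and product were separated electrophoretically on a Caliper EZ Reader II. IC50 values came from nonlinear dose-response fits.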

[2] = tested on: ovarian cancer A2780; assay: Cell biological activity detection (CyQuant, 72 hours), A2780; assay type: cell-based, human; conditions: Homo sapiens, A2780, 72 h, A2780 cells, incubation for 72 hours
Method in brief: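 A2780 and HCC70 cells seeded at 2000/well in RPMI 1640 + 10% FBS, treated next day with 9-point compound dilutions (top 10 μM, 1:4; 0.2% DMSO) for 72 h at 37 °C. Cell number read by CyQuant Direct nucleic acid stain (ex 488 nm); IC50 from dose–response fit.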

[3] = Caco-2 membrane permeability and efflux rate; assay type: in vitro ADME; conditions: human, Caco-2, Caco-2, 5 μM; for Papp B→A at 2 h, 5 μM: basal end to top end; for efflux ratio at 2 h, 5 μM: read-out: ER (efflux rate); for Papp A→B at 2 h, 5 μM: top end to basal end
Method: The recovered Caco-2 cell suspension was seeded into a […] plate and cultured for 14-18 days. After being cultured for 14 days, the cells were fused and differentiated to be ready for a transport experiment. The Caco-2 cell plate was taken out from the incubator. Stock solutions of a to-be-tested compound and a control compound were formulated with DMSO and diluted with an HBSS (10 mM HEPES, pH 7.4) buffer to a final concentration of 5 μM. A test compound solution and a control drug solution were added to each well (top end) of an insert culture plate, and the HBSS (10 mM HEPES, pH 7.4) buffer was added to each well of a test compound receiving plate (basal end). When measuring the transport rate of the compound from the basal end to the top end, the test compound solution and the control drug solution were added to each well of the receiving plate (basal end), the HBSS (10 mM HEPES, pH 7.4) buffer solution was added to each well (top end) of the insert culture plate for the test compound solution, and incubation was carried out for 2 hours in a CO2 incubator at 37° C. After the transport experiment was completed, vortexing was carried out for 10 minutes at 1000 rpm. After sample quenching at each time point, LC/MS/MS analysis was carried out. A fluorescence value was measured after a two-hour transport experiment, a lucifer yellow solution was added in a transwell chamber (top end), a transport buffer solution was added in the basal end, and incubation was carried out for 30 minutes in the CO2 incubator at 37° C. The solution was taken out directly from the top end and the basal end (using basolateral wells) and transferred to a new 96-well plate. A cell fluorescence value was measured by a microplate reader (to detect membrane integrity), an excitation wavelength was […], and an emission wavelength was […]. All data were calculated by using Microsoft Excel, and a peak area was calculated according to chromatograms. An apparent permeability coefficient (Papp, unit: 10-6, cm/s) and an efflux rate (ER) of the compounds in Caco-2 cells were calculated by the specific concentrations of a receiving end and an administering end.

SMILES | IC50 [1] [nM] | IC50 [2] [nM] | Papp B→A at 2 h, 5 μM [3] [×10⁻⁶ cm/s] | efflux ratio at 2 h, 5 μM [3] | Papp A→B at 2 h, 5 μM [3] [×10⁻⁶ cm/s]
CC(CO)CNc1ncc(C(F)(F)F)c(-c2c[nH]c3c(P(C)(C)=O)cccc23)n1 (single isomer, unassigned) [Compound 149] | 200 to 5000 | 20 to 200 | 32.8 | 7.8 | 4.2
C[C@@H](CO)Nc1ncc(C(F)(F)F)c(-c2c[nH]c3c(P(C)(C)=O)cccc23)n1 [Compound 82, (S)-(3-(2-((1-hydroxypropyl-2-yl)amino)-5-(trifluoromethyl)pyrimidin-4-yl)-1H-indole-7-yl)dimethylphosphine oxide] | 200 to 5000 | < 20 | 23.6 | 3.95 | 5.32
CP(C)(=O)c1cccc2c(-c3nc(N[C@H]4CC[C@H](O)C4)ncc3C(F)(F)F)c[nH]c12 [Compound 83] | 200 to 5000 | < 20 | 32.4 | 16.3 | 1.99
CC(C)(CO)Nc1ncc(C(F)(F)F)c(-c2c[nH]c3c(P(C)(C)=O)cccc23)n1 [Compound 85, (3-(2-((1-hydroxy-2-methylpropan-2-yl)amino)-5-(trifluoromethyl)pyrimidin-4-yl)-1H-indole-7-yl)dimethylphosphine oxide] | 5000 to 50000 | < 20 | 21.3 | 2.77 | 7.69
C[C@H](CO)Nc1ncc(C(F)(F)F)c(-c2c[nH]c3c(P(C)(C)=O)cccc23)n1 [Compound 93, (R)-(3-(2-((1-hydroxypropyl-2-yl)amino)-5-(trifluoromethyl)pyrimidin-4-yl)-1H-indole-7-yl)dimethylphosphine oxide] | 200 to 5000 | < 20 | 27 | 7.64 | 3.53
CP(C)(=O)c1cccc2c(-c3nc(NC4(CO)CC4)ncc3C(F)(F)F)c[nH]c12 [Compound 94, (3-(2-((1-(hydroxymethyl)cyclopropyl)amino)-5-(trifluoromethyl)pyrimidin-4-yl)-1H-indole-7-yl)dimethylphosphine oxide] | 5000 to 50000 | < 20 | 31.4 | 12.5 | 2.51
CP(C)(=O)c1cccc2c(-c3nc(NCC(F)(F)CO)ncc3C(F)(F)F)c[nH]c12 [Compound 102, (3-(2-((2,2-difluoro-3-hydroxypropyl)amino)-5-(trifluoromethyl)pyrimidin-4-yl)-1H-indole-7-yl)dimethylphosphine oxide] | 5000 to 50000 | < 20 | 26.8 | 7.8 | 3.43
C[C@@H](CO)Nc1ncc(Cl)c(-c2c[nH]c3c(P(C)(C)=O)cccc23)n1 [Compound 103, (S)-(3-(5-chloro-2-((1-hydroxypropan-2-yl)amino)pyrimidin-4-yl)-1H-indole-7-yl)dimethylphosphine oxide] | 200 to 5000 | 20 to 200 | 36.1 | 5.38 | 6.7
CP(C)(=O)c1cccc2c(-c3nc(NC4(CO)CC(F)C4)ncc3C(F)(F)F)c[nH]c12 (stereo not drawn) [Compound 105, (3-(2-((3-fluoro-1-(hydroxymethyl)cyclobutyl)amino)-5-(trifluoromethyl)pyrimidin-4-yl)-1H-indole-7-yl)dimethylphosphine oxide] | 5000 to 50000 | 20 to 200 | 21.9 | 7.32 | 2.99
CP(C)(=O)c1cccc2c(-c3nc(NC4(CO)COC4)ncc3C(F)(F)F)c[nH]c12 [Compound 114, (3-(2-((3-(hydroxymethyl)oxetan-3-yl)amino)-5-(trifluoromethyl)pyrimidin-4-yl)-1H-indole-7-yl)dimethylphosphine oxide] | 200 to 5000 | < 20 | 25.4 | 31.9 | 0.8

Next, values leading:

IC50 [1] [nM] | IC50 [2] [nM] | Papp B→A at 2 h, 5 μM [3] [×10⁻⁶ cm/s] | efflux ratio at 2 h, 5 μM [3] | Papp A→B at 2 h, 5 μM [3] [×10⁻⁶ cm/s] | SMILES
5000 to 50000 | < 20 | 27.3 | 10.3 | 2.64 | CC1(C)COCC(Nc2ncc(C(F)(F)F)c(-c3c[nH]c4c(P(C)(C)=O)cccc34)n2)CN1 (single isomer, unassigned) [Compound 91, (3-(2-((3,3-dimethyl-1,4-oxazepan-6-yl)amino)-5-(trifluoromethyl)pyrimidin-4-yl)-1H-indole-7-yl)dimethylphosphine oxide]
5000 to 50000 | < 20 | 33.8 | 16 | 2.11 | CP(C)(=O)c1cccc2c(-c3nc(NC4(CO)CCOC4)ncc3C(F)(F)F)c[nH]c12 (single isomer, unassigned) [Compound 118]
5000 to 50000 | 20 to 200 | 32.4 | 6.76 | 4.8 | CC(O)[C@H](C)Nc1ncc(C(F)(F)F)c(-c2c[nH]c3c(P(C)(C)=O)cccc23)n1 (single isomer, unassigned) [Compound 129]
5000 to 50000 | 20 to 200 | 32.5 | 13.3 | 2.44 | CP(C)(=O)c1cccc2c(-c3nc(NCC4CC4CO)ncc3C(F)(F)F)c[nH]c12 (single isomer, unassigned) [Compound 143]
200 to 5000 | < 20 | 22.3 | 4.38 | 5.1 | C[C@@H](CO)Nc1ncc(C(F)(F)F)c(-c2c[nH]c3c(P(C)(C)=O)c(C#N)ccc23)n1 [Compound 79, (S)-7-(dimethylphosphoryl)-3-(2-((1-hydroxy-propan-2-yl)amino)-5-(trifluoromethyl)pyrimidin-4-yl)-1H-indole-6-carbonitrile]
200 to 5000 | < 20 | 29.5 | 20.5 | 1.44 | CP(C)(=O)c1cccc2c(-c3nc(NC[C@H](F)CO)ncc3C(F)(F)F)c[nH]c12 [Compound 86, (S)-(3-(2-((2-fluoro-3-hydroxypropyl)amino)-5-(trifluoromethyl)pyrimidin-4-yl)-1H-indole-7-yl)dimethylphosphine oxide]
200 to 5000 | < 20 | 25.1 | 37.1 | 0.68 | CP(C)(=O)c1cccc2c(-c3nc(N[C@H]4COC[C@@H]4O)ncc3C(F)(F)F)c[nH]c12 [Compound 87]
200 to 5000 | < 20 | 29.2 | 7.77 | 3.76 | CC[C@@H](CO)Nc1ncc(C(F)(F)F)c(-c2c[nH]c3c(P(C)(C)=O)cccc23)n1 [Compound 88, (S)-(3-(2-((1-hydroxybutan-2-yl)amino)-5-(trifluoromethyl)pyrimidin-4-yl)-1H-indole-7-yl)dimethylphosphine oxide]
200 to 5000 | < 20 | 30.6 | 14.3 | 2.13 | CP(C)(=O)c1cccc2c(-c3nc(NCCCO)ncc3C(F)(F)F)c[nH]c12 [Compound 89, (3-(2-((3-hydroxypropyl)amino)-5-(trifluoromethyl)pyrimidin-4-yl)-1H-indole-7-yl)dimethylphosphine oxide]
5000 to 50000 | < 20 | 26.1 | 14.1 | 1.86 | CP(C)(=O)c1cccc2c(-c3nc(NC4(CO)CC(F)(F)C4)ncc3C(F)(F)F)c[nH]c12 [Compound 96, (3-(2-((3,3-difluoro-1-(hydroxymethyl)cyclobutyl)amino)-5-(trifluoromethyl)pyrimidin-4-yl)-1H-indole-7-yl)dimethylphosphine oxide]
200 to 5000 | < 20 | 32.3 | 20.8 | 1.55 | CP(C)(=O)c1cccc2c(-c3nc(NCCO)ncc3C(F)(F)F)c[nH]c12 [Compound 97, (3-(2-((2-hydroxyethyl)amino)-5-(trifluoromethyl)pyrimidin-4-yl)-1H-indole-7-yl)dimethylphosphine oxide]
